Reference: patent US20190330189A1, “ANTIBACTERIAL COMPOUNDS” (Janssen Sciences Ireland UC, priority 2015, published 2019)
≈ marks a conversion by molar mass, not a printed value. Where two headings read alike, the source gives them in different places.

Columns and labels:
[1] = tested on: Mycobacterium tuberculosis strain EH 4.0 (361.269); assay: Test 4: MIC determination, resazurin fluorescence, strain EH 4.0; format: cell-based; settings: Mycobacterium tuberculosis, read-out: pIC50, Test 4, M. tuberculosis strain EH 4.0 (361.269) (converted)
In short: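 M. tuberculosis EH 4.0 (361.269) from stationary-phase culture, ~5×10^5 CFU/well in 7H9 medium with compound dilutions. Incubated 7 days at 37 °C, then resazurin added; MIC from fluorescence.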

[2] = tested on: Mycobacterium tuberculosis strain H37Rv; assay: Test 1: MIC determination, resazurin fluorescence, M. tuberculosis H37Rv; format: cell-based; settings: Mycobacterium tuberculosis, H37RV
[3] = tested on: replicating and non-replicating bacteria; settings: cited from earlier work
[4] = tested on: M. tuberculosis H37Rv; settings: strain M. tuberculosis H37Rv, inside macrophages; cited from earlier work
[5] = Test 1, M. tuberculosis H37Rv, first test, read-out: pIC50 (converted)
[6] = Test 1, repeated (2nd) test, read-out: pIC50 * (converted)
[7] = Test 1, repeated (3rd) test, read-out: pIC50 ** (converted)

SMILES | melting point | IC50 [1] | IC50 [2, 5] | IC50 [2, 6] | IC50 [2, 7] | activity against replicating and non-replicating bacteria [3] | MIC50 [4]
CCc1nc2ccc(Cl)cn2c1C(=O)NCc1ccc(N2CC3(C2)CN(c2ccc(OC(F)(F)F)cc2)C3)cc1 [Compound 4] | 184.57 °C | 5.01 nM | 120 nM | – | – | – | –
CCc1nc2ncc(Cl)cn2c1C(=O)NCc1ccc(N2CC3(C2)CN(c2ccc(OC(F)(F)F)cc2)C3)cc1 [Compound 5] | 242.43 °C | 31.6 nM | 69.2 nM | 74.1 nM | 74.1 nM | – | –
CCc1nc2sc(C)cn2c1C(=O)NCc1ccc(N2CC3(CCC3)C2)cc1 [Compound 12] | 300 °C | 31.6 nM | 129 nM | 70.8 nM | 107 nM | – | –
CCc1nn2ccccc2c1C(=O)NCc1ccc(C2CC3(C2)CN(c2ccc(S(F)(F)(F)(F)F)cc2)C3)cc1 [Compound 159] | 177.08 °C | 39.8 nM | – | – | – | – | –
Cc1nn2ccccc2c1C(=O)NCc1ccc(C2CC3(C2)CN(c2ccc(S(F)(F)(F)(F)F)cc2)C3)cc1 [Compound 160] | 166.29 °C | 31.6 nM | – | – | – | – | –
CCc1nn2ccccc2c1C(=O)NCc1ccc(N2CC3(CC(c4ccc(OC(F)(F)F)cc4)C3)C2)cc1 [Compound 161] | 126.57 °C | 2510 nM | – | – | – | – | –
Cc1nn2ccccc2c1C(=O)NCc1ccc(N2CC3(C2)CN(c2ccc(S(F)(F)(F)(F)F)cc2)C3)cc1 [Compound 162] | 238.06 °C | 7940 nM | – | – | – | – | –
CCc1nc2ccc(Cl)cn2c1C(=O)NCc1ccc(N2CC3(CCC3)C2)cc1 [Compound 163] | 142.39 °C | 7940 nM | – | – | – | – | –
CCc1nc2ccc(Cl)cn2c1C(=O)NCC1CC2(C1)CN(c1ccc(OC(F)(F)F)cc1)C2 [Compound 164] | 165.12 °C | 7940 nM | – | – | – | – | –
CCc1nn2ccccc2c1C(=O)NCC1CC2(C1)CN(c1ccc(OC(F)(F)F)cc1)C2 [Compound 165] | 150.69 °C | 7940 nM | – | – | – | – | –
CCc1nc2ccc(Cl)cn2c1C(=O)NCc1ccc(N2CCC(c3ccc(OC(F)(F)F)cc3)CC2)cc1 [Compound Q203, Q203] | – | – | – | – | – | highly active | 0.28 nM (≈ 0.156 ng/mL)
